Assay results: US20240175819A1, “DIAGNOSTIC TEST” (THE UNIVERSITY OF WARWICK, priority 2022, published 2024)

Test system: E. coli
Assay: Hydrogel biosensors with encapsulated antibiotic spiked with E. coli; inhibition of bacterial growth by antibiotic release (FIG. 6)
Assay type: cell-based
Settings: antibiotic encapsulated within crosslinked hydrogel network, photographs
Description: FIG. 6 is a series of photographs of biosensors each comprising a different antibiotic wherein bacterial growth is inhibited as a result of antibiotic release from the hydrogel network;
Referring now to FIG. 6, there is shown photographs of three biosensors 6A, 6B, 6C each comprising a different antibiotic encapsulated within the crosslinked hydrogel network. Biosensor 6A comprises the antibiotic chloramphenicol, biosensor 6B comprises the antibiotic kanamycin, and biosensor 6C comprises the antibiotic ampicillin. The biosensors 6A, 6B, 6C were spiked with E. coli. In each case, it is shown that there is antibacterial activity in the area surrounding the spiked portion of hydrogel. Therefore, in these cases, E. coli. is shown to be susceptible to the antibiotics encapsulated within the biosensors 6A, 6B, 6C.

SMILES: CC1(C)S[C@@H]2[C@H](NC(=O)[C@H](N)c3ccccc3)C(=O)N2[C@H]1C(=O)O [ampicillin]
- susceptibility of E. coli to the antibiotic encapsulated within the biosensor (antibacterial activity in the area surrounding the spiked portion of hydrogel): susceptible

SMILES: O=C(N[C@H](CO)[C@H](O)c1ccc([N+](=O)[O-])cc1)C(Cl)Cl [chloramphenicol]
- susceptibility of E. coli to the antibiotic encapsulated within the biosensor (antibacterial activity in the area surrounding the spiked portion of hydrogel): susceptible
